Marks after values point to notes of the source that are not given here. Bridge positions count the residues as written; N and C are the ends. Peptide text beside a SMILES is read from it.
Columns and labels:
[1] = tested on: S. aureus 502a; assay: Cell-suspension microbicidal assay (MMC); assay type: cell-based, Staphylococcus aureus; conditions: for MMC, S. aureus: lowest concentration that reduced cell viability by 99.9%, 10 mM PIPES, 5 mM glucose, pH 7.4, 2 h 37° C.
Protocol: (§1) To test microbicidal activities, the activities of each peptide against S. aureus 502a, E. coli ML35, and C. albicans 16820 were assessed essentially as described in Example I with modifications to allow for simultaneous analysis of all twenty peptides. Briefly, two-fold serial dilutions of each peptide (in 0.01% acetic acid 0.062-8.0 μg/ml final concentrations) were mixed with 10 mM PIPES, pH 7.4, containing 5 mM glucose in sterile polystyrene 96-well plates (Corning, N.Y.). Aliquots of log-phase bacteria or yeast were added to a 2×10^6 CFU/ml final density as determined by A620. After 2 h incubation at 37° C., 15 μl of the incubation mixture was removed and serially diluted ten-fold from 1:10 to 1:10^6 in trypticase soy broth (bacteria) or Sabaraud dextrose broth (C. albicans). The diluted cell suspensions were grown 24-48 h at 37° C. until cell pellets were visible. Microbicidal activity was determined as absence of growth and was correlated to CFU/ml in control experiments where activity was determined in parallel by colony counting (see Example I). Absence of growth at the 1:10^3 dilution is equivalent to a 3-log reduction in microbial viability.
(§2) The microbicidal activities of each peptide against E. coli ML35, S. aureus 502a, and C. albicans 16820 were determined with cell-suspension microbicidal assays in 96-well plates (see Example II). Briefly, log-phase cells (2×10^6 CFU/ml final) were incubated with increasing concentrations of peptides (0-8 μg/ml final) in 50 μl of 10 mM PIPES, 5 mM glucose, pH 7.4, for 2 h at 37° C. Incubation mixtures were diluted 1:10 to 1:10^6 with trypticase-soy broth (bacteria) or Sabaraud dextrose broth (fungi) and incubated at 37° C. for 24-48 h until cell pellets were visible. Microbicidal activities (confirmed in control experiments as described in Example II) were determined as the absence of a cell pellet in the various dilutions. Peptide concentrations that caused ≧99.9% killing (absence of a cell pellet at 1:10^3 dilution) were taken as the minimum microbicidal concentrations (MMC).

[2] = tested on: C. albicans 16820; assay: Cell-suspension microbicidal assay (MMC); assay type: cell-based, Candida albicans; conditions: for MMC, C. albicans: lowest concentration that reduced cell viability by 99.9%, 10 mM PIPES, 5 mM glucose, pH 7.4, 2 h 37° C.
Protocol: as §1, §2

[3] = tested on: S. aureus 502a, E. coli ML35, and C. albicans 16820; assay: Cell-suspension microbicidal assay, statements across the test organisms (lowest MMC, overall ranges); assay type: cell-based; conditions: for fold higher MMC than the native cyclic peptide: de-cyclized analog versus native θ-defensin, three test organisms; for M: peptide concentration that kill 99.9% of either S. aureus, E. coli, or C. albicans, lowest MMC value; for 99.9% kill against one of the bacterial organisms: at 8 μg/ml, the highest concentration tested
Protocol: as §1, §2
(§3) A selectivity index (SI=H/M) was calculated as a ratio of a peptide concentration (μg/ml) that causes 3% hemolysis (H) obtained from a dose-dependent hemolysis plot over 0.3 to 3 μg/ml of each peptide in PBS and the lowest MMC value (M) for any of the three test microorganisms (see Example II; Table 2).

[4] = tested on: S. aureus 502a; assay type: cell-based, Staphylococcus aureus; conditions: physiologic salt / various concentrations of salt; FIG. 6
Protocol: The activity of each peptide (5 μg/ml) was determined in assays containing increasing concentrations of sodium chloride. Staphylocidal activities were expressed as percentages of killing obtained in the absence of additional NaCl.
(§4) To determine the effects of serum, salt, calcium chloride and magnesium chloride on microbicidal activities, peptide activities were determined in assays containing varying ionic strength, divalent cations, and serum. The effect of serum on staphylocidal activity of each peptide was determined by incubating 1×10^6 CFU/ml of S. aureus 502a with increasing peptide concentrations (0.5-4 μg/ml) in 10 mM PIPES, pH 7.4, containing 10% normal human serum for 2 h at 37° C. The effect of sodium chloride on staphylocidal activities was assessed with 5 μg/ml of each peptide in 10 mM PIPES, pH 7.4, containing varying concentrations of sodium chloride (0-160 mM). Effects of divalent cations, CaCl2, or MgCl2 (0-5.6 mM) were assessed in microbicidal assays against E. coli ML35. Bactericidal activities were determined by colony counting (see Example II), and microbicidal potencies were expressed as percent killing as follows:
(§5) [formula] where A=surviving bacteria (CFU/ml) after initial incubation with each peptide in buffer containing serum, salt, or divalent cations and Ao=bacterial CFU/ml in the “no-peptide” controls.

[5] = tested on: E. coli ML35; assay: Cell-suspension microbicidal assay (MMC); assay type: cell-based, Escherichia coli; conditions: for MMC, E. coli: lowest concentration that reduced cell viability by 99.9%, 10 mM PIPES, 5 mM glucose, pH 7.4, 2 h 37° C.
Protocol: as §1, §2

[6] = tested on: S. aureus 502a; assay type: cell-based, Staphylococcus aureus; conditions: for enhancement of staphylocidal activity by serum: 10% normal human serum, FIG. 7
Protocol: Dose-dependent staphylocidal activity of each peptide was determined in assays containing 10% normal human serum. Percentages of killing are relative to activities of peptide-containing incubations in which serum was omitted.
as §4, §5

[7] = tested on: E. coli ML35; assay: Membrane permeabilization assay (ONPG hydrolysis); assay type: cell-based, Escherichia coli; conditions: rates at 1 μg/ml concentration of each peptide
Protocol: For the membrane permeabilization assay, the permeabilization of bacterial cytoplasmic membranes was determined by measuring hydrolysis of o-nitrophenyl-β-D-galactcpyranoside (ONPG) in E. coli ML35 (Sitaram et al., FEBS Lett. 303:265-268 (1992); Lehrer et al.,. J. Immunol. Methods 108:153-158 (1988)). Peptides dissolved in 5 μl of 0.01% acetic acid were two-fold serially diluted with 10 mM PIPES, pH 7.4, containing 3 mM ONPG, to final peptide concentrations of 0-8.0 μg/ml. Log-phase bacteria, prepared in PIPES buffer as described for the microbicidal assay (see Example I), were added to 1×10^6 CFU/ml final density in a final volume of 90 μl. ONPG hydrolysis was measured at 405 nm for 60 min using a SpectraMAX 190 plate reader and SOFTmaxPRO 3.1 (Molecular Devices Corp., CA). […]

[8] = tested on: human erythrocytes; assay: Hemolysis assay; assay type: cell-based
Protocol: For the hemolysis assay, the hemolytic activity of each peptide was determined by the method of Tam et al. (Tam et al., Eur. J. Biochem. 267:3289-3300 (2000)). Blood was obtained from a healthy donor in accordance to a protocol approved by the Institutional Review Board. Normal human serum was prepared from the same individual and stored at −20° C. Red blood cells (RBC) were prepared from blood collected in EDTA. RBC were harvested at 234×g for 10 min, 22° C., washed four times with 10 mM sodium phosphate, 150 mM NaCl, pH 7.4 (PBS), containing 4 mM EDTA and resuspended in PBS without EDTA. Peptides dissolved in 10 μl 0.01% HOAc were diluted with PBS to final concentrations of 0.3-100 μg/ml. RBC were added to a 2% final density in 100 μl. Incubation mixtures were also prepared with 10% serum. After 1 h incubation at 37° C., the cell suspensions were centrifuged at 234×g for 10 min, 22° C. Fifty-μl samples of the supernatants were removed, and the absorbance at 405 nm (A) was measured. Hemolytic activity of each peptide was calculated relative to lysis by 1% NP-40 using the following formula:
as §3

Row | Structure (SMILES) | MMC, S. aureus [1] | MMC, C. albicans [2] | fold higher MMC than the native cyclic peptide [3] | M [3] | effect of salt on microbicidal activity (in words) [4] | fold lower staphylocidal potency than native PG-1 ([1]; from MMC, Table 2) | fold lower potency against E. coli than native PG-1 ([5]; from MMC, Table 2) | MMC, E. coli [5] | fold lower candidacidal potency than native PG-1 ([2]; from MMC, Table 2) | fold less microbicidal than PG-1 ([3]; Table 5) | enhancement of staphylocidal activity by serum [6] | ONPG hydrolysis [7] | percent less hemolytic than native PG-1 [8] | Killing percentage, S. aureus (MMC not reached) ([1]; at 8 μg/ml, the highest concentration tested) | fold lower staphylocidal activity than RTD-3 and PG-1 ([1]; from MMC, Table 2) | 99.9% kill against one of the bacterial organisms [3] | inhibition of bactericidal activity in serum ([6]; 502a) | H ([8]; peptide concentration that causes 3% hemolysis, calculated from dose-dependent hemolysis plot over 0.3-3 μg/ml in PBS)
1 | CC(C)C[C@@H]1NC(=O)[C@@H]2CSSC[C@H](NC(=O)[C@H](CCCNC(=N)N)NC(=O)[C@@H](NC(=O)[C@@H](NC(=O)CN)C(C)C)CSSC[C@@H](C(=O)N[C@@H](CCCNC(=N)N)C(=O)N[C@@H](CCCNC(=N)N)C(=O)O)NC1=O)C(=O)N[C@@H](CC(C)C)C(=O)N[C@H]1CSSC[C@H](NC(=O)[C@H](C(C)C)NC(=O)CNC(=O)[C@H](CCCNC(=N)N)NC(=O)[C@H](CCCNC(=N)N)NC1=O)C(=O)N[C@@H](CCCNC(=N)N)C(=O)N2 [aRTD-3-OH] (H-GVCRCLCRRGVCRCLCRR-OH; disulfide 3-16, 5-14, 7-12; N-terminus assumed) | 1.5 µg/mL | 1.5 µg/mL | 1-2 fold | 1.5 µg/mL | least affected |  |  |  |  |  |  |  |  |  |  |  |  | 
2 | CC(C)C[C@H](NC(=O)[C@H](CCCNC(=N)N)NC(=O)CNC(=O)CNC(=O)[C@@H](N)CCCNC(=N)N)C(=O)N[C@H]1CSSC[C@@H](C(=O)N[C@H](C(=O)NCC(=O)N[C@@H](CCCNC(=N)N)C(=O)O)C(C)C)NC(=O)[C@H](C(C)C)NC(=O)[C@@H]2CSSC[C@H](NC(=O)[C@H](Cc3ccc(O)cc3)NC1=O)C(=O)N[C@@H](CCCNC(=N)N)C(=O)N[C@@H](CCCNC(=N)N)C(=O)N[C@@H](CCCNC(=N)N)C(=O)N[C@@H](Cc1ccccc1)C(=O)N2 [PG-1-OH] (H-RGGRLCYCRRRFCVCVGR-OH; disulfide 6-15, 8-13; N-terminus assumed) | 2.0 µg/mL | 1.5 µg/mL |  | 1.5 µg/mL |  | 5 fold | 1- to 2 fold | 1.5 µg/mL | 1- to 2 fold | 2-3 fold | 25% | 10.7 (A405/sec) · 10^−5 | about 50% |  |  |  |  | 
3 | CC(C)C[C@@H]1NC(=O)[C@@H]2CSSC[C@H](NC(=O)[C@H](CCCNC(=N)N)NC(=O)[C@@H](NC(=O)[C@@H](NC(=O)CNC(=O)[C@@H](N)CCCNC(=N)N)C(C)C)CSSC[C@@H](C(=O)N[C@@H](CCCNC(=N)N)C(N)=O)NC1=O)C(=O)N[C@@H](CC(C)C)C(=O)N[C@H]1CSSC[C@H](NC(=O)[C@H](C(C)C)NC(=O)CNC(=O)[C@H](CCCNC(=N)N)NC(=O)[C@H](CCCNC(=N)N)NC1=O)C(=O)N[C@@H](CCCNC(=N)N)C(=O)N2 [3:1 aRTD-3-NH] (H-RGVCRCLCRRGVCRCLCR-NH2; disulfide 4-17, 6-15, 8-13; N-terminus assumed) | > 8 µg/mL | 0.8 µg/mL |  | 0.75 µg/mL |  |  |  | 1.0 µg/mL |  |  |  | 9.4 (A405/sec) · 10^−5 |  | (99%)^b | at least 8 fold | did not achieve a 99.9% kill | 20-50% | 
4 | CC[C@H](C)[C@@H]1NC(=O)[C@@H]2CSSC[C@H](NC(=O)[C@H](CCCNC(=N)N)NC(=O)[C@@H](NC(=O)[C@H](Cc3ccccc3)NC(=O)CN)CSSC[C@@H](C(=O)N[C@H](C(=O)N[C@@H](CCCNC(=N)N)C(=O)O)[C@@H](C)O)NC1=O)C(=O)N[C@@H](CC(C)C)C(=O)N[C@H]1CSSC[C@H](NC(=O)[C@H](C(C)C)NC(=O)CNC(=O)[C@H](CCCNC(=N)N)NC(=O)[C@H](CCCNC(=N)N)NC1=O)C(=O)N[C@@H](CCCNC(=N)N)C(=O)N2 [aRTD-1-OH] (H-GFCRCLCRRGVCRCICTR-OH; disulfide 3-16, 5-14, 7-12; N-terminus assumed) | 4.5 µg/mL | 4.0 µg/mL | 4 fold | 4 µg/mL | intermediate |  |  |  |  |  |  | 2.4 (A405/sec) · 10^−5 |  |  |  | did not achieve a 99.9% kill |  | 15.0 µg/mL
5 | CC(C)C[C@H](NC(=O)[C@H](CCCNC(=N)N)NC(=O)CNC(=O)CN)C(=O)N[C@H]1CSSC[C@@H](C(=O)N[C@H](C(=O)NCC(=O)N[C@@H](CCCNC(=N)N)C(=O)N[C@@H](CCCNC(=N)N)C(N)=O)C(C)C)NC(=O)[C@H](C(C)C)NC(=O)[C@@H]2CSSC[C@H](NC(=O)[C@H](Cc3ccc(O)cc3)NC1=O)C(=O)N[C@@H](CCCNC(=N)N)C(=O)N[C@@H](CCCNC(=N)N)C(=O)N[C@@H](CCCNC(=N)N)C(=O)N[C@@H](Cc1ccccc1)C(=O)N2 [4:4 PG-1-NH] (H-GGRLCYCRRRFCVCVGRR-NH2; disulfide 5-14, 7-12; N-terminus assumed) | 0.5 µg/mL | 1.5 µg/mL |  | 0.5 µg/mL |  |  |  | 1.0 µg/mL |  |  | ~40% | 12.4 (A405/sec) · 10^−5 |  |  |  |  |  | 
